The record followed here is patent US20240246967A1, “AXL COMPOUNDS” (ARCUS BIOSCIENCES, INC., priority 2021, published 2024).

Assay [1] has as its target T1, Axl (Homo sapiens, UniProt P30530).
T1 sequence (P30530 26-894): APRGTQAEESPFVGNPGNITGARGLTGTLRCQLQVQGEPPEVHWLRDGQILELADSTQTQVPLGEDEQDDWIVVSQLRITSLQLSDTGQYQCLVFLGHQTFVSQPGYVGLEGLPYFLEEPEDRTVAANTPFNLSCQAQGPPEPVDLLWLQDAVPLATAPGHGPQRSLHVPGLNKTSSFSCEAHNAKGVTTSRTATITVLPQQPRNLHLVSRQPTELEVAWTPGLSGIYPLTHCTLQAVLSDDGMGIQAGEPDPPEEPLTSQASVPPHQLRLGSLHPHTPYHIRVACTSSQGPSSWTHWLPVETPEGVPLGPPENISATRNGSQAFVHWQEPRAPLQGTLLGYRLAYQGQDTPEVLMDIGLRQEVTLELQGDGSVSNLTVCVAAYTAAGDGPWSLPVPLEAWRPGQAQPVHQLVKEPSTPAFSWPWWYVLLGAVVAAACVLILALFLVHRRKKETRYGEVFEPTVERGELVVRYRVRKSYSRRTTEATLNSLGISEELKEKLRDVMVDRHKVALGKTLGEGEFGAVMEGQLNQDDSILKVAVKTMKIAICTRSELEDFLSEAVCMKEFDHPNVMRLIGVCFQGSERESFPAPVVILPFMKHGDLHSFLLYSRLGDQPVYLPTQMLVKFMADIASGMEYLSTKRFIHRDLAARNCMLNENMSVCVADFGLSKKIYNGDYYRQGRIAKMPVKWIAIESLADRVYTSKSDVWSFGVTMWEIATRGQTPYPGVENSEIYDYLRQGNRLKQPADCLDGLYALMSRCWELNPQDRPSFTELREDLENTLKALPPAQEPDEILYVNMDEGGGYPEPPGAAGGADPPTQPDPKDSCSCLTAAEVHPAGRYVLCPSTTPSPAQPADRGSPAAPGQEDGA
Put plainly: Axl NanoBRET intracellular kinase assay (intracellular binding, Cell Binding). Set-up: host or cells: HEK-293. As to conditions: HEK-293 cells transfected with Axl-NanoLuc fusion vector; 0.35 μM K-5 NanoBRET tracer. On the procedure:
Axl NanoBRET™ intracellular kinase assay (Promega, N2540) was performed according to manufacturer's recommendation. In brief, HEK-293 cells are transiently transfected with Axl-NanoLuc fusion vector (Promega, NV1071), utilizing Fugene HD transfection reagent (Promega, E2311) a day before experiment following manufacturer's recommendation.
The day of the assay, the cells were collected and resuspended in Opti-MEM media (ThermoFisher, 31985070) at 2e5 cells/mL concentration. Testing compounds were serial diluted and dispensed into a white 384 well polystyrene plate at 200 nL in 100% DMSO. 40 μL of resuspended cells is then added per well for a final condition of 8K cells/well with 0.5% DMSO. After one-hour compound pre-incubation at 37° C. and 5% CO2, cells were further incubated with 0.35 μM K-5 NanoBRET tracer for two-hours at 37° C. and 5% CO2. […] of 3× substrate plus Inhibitor solution was prepared according to kits manual and added to the cells followed by a 30 second pulse centrifugation spin. The plate was then immediately read utilizing an Envision (Perkin Elmer) plate reader. The BRET signal is measured by taking the ratio of the emissions reading at 610 nm and 450 nm. Compound binding is based on the decrease BRET signal caused by the displacement of the K-5 tracer. […] IC50 value of compounds was determined by 4-parameter non-linear regression fitting of percent activity in GraphPad Prism software.

Assay [2] concerns the target T1, Axl. Put plainly: HTRF KinEASE-TK biochemical potency assay, AXL. Set-up: purchased Invitrogen. To be noted: 5 nM AXL, 700 μM ATP, 800 nM TK Substrate-biotin. On the procedure:
Purified recombinant human AXL, TYRO3 and MER proteins were purchased from Invitrogen™. 10 nM AXL, 2 nM TYRO3 or MER were incubated with varying concentrations of compounds in 50 mM HEPES, pH 7.4, 10 mM MgCl2, 0.01% BSA, 1 mM DTT and 2% DMSO in a total volume of 20 μl in a 384-well microplate (Corning™ #3640) at RT for 1 h. The AXL, TYRO3 and MER enzymatic reaction was initiated by transferring 10 μl of enzyme and compound mixture into 10 μl of 1.6 μM TK Substrate-biotin (HTRF® KinEASE-TK kit, Cisbio) and 1400 μM ATP pre-incubated in 50 mM HEPES, pH 7.4, 10 mM MgCl2, 0.01% BSA, 1 mM DTT in a 384-well microplate (Corning™ #3640) at RT, giving the final reaction conditions: 5 nM AXL, 1 nM TYRO3 or MER, 800 nM TK Substrate-biotin and 700 μM ATP in 50 mM HEPES, pH 7.4, 10 mM MgCl2, 0.01% BSA, 1 mM DTT and 1% DMSO with varying concentrations of compounds. Following 2 h incubation at RT, the AXL, TYRO3 and MER enzymatic reaction was stopped by transfer of 10 μl of reaction into 10 μl of detection mix (400 nM Streptavidin-XL665, 200-fold dilution TK Antibody-Cryptate and detection buffer, HTRF® KinEASE-TK kit, Cisbio) in a white 384-well microplate (Perkin Elmer, OptiPlate 384). After 1 h incubation at RT, the plate was put into a plate reader (Evision) to read at 665/620 nm (acceptor/donor) for HTRF. The value of the DMSO blank (MIN inhibition=100% activity) was used as a negative control. The positive control was established by adding 5 μl of enzyme and DMSO mixture into 10 μl of detection mix followed by addition of 5 μl of TK Substrate-biotin and ATP mixture (MAX inhibition=0% activity). To calculate the percent activity, Equation 1 was used. Ratio 665/620 is the value at a given compound concentration: […]

Structures are written as SMILES. pIC50: −log10 of the molar value.

One may read the pIC50 as the negative decadic logarithm of the IC50, by convention in mol/L. `CC(O)(c1ccc(-c2n[nH]c3ncc(-c4ccc5c(c4)CCN(C4CCCC4)CC5)cc23)cc1)C(F)(F)F` (stereo not shown) [Example 13, 2-{4-[5-(3-Cyclopentyl-2,3,4,5-tetrahydro-1H-3-benzazepin-7-yl)-1H-pyrazolo[3,4-b]pyridin-3-yl]phenyl}-1,1,1-trifluoropropan-2-ol]: the pIC50 at Axl [1] was 6.00 to 7.00.
Still for that read-out and setting: the result for `CC(C)(O)c1ccc(-c2n[nH]c3ncc(-c4ccc5c(c4)CCN(C4CCCC4)CC5)cc23)cc1OC(F)(F)F` [Example 14, 2-{4-[5-(3-Cyclopentyl-2,3,4,5-tetrahydro-1H-3-benzazepin-7-yl)-1H-pyrazolo[3,4-b]pyridin-3-yl]-2-(trifluoromethoxy)phenyl}propan-2-ol] reads < 6.00.
Still for that read-out and setting: the result for `CC(C)(O)c1ccc(-c2n[nH]c3ncc(-c4ccc5c(c4)CCN(C4CCCC4)CC5)c(F)c23)cc1Cl` [Example 15, 2-{2-Chloro-4-[5-(3-cyclopentyl-2,3,4,5-tetrahydro-1H-3-benzazepin-7-yl)-4-fluoro-1H-pyrazolo[3,4-b]pyridin-3-yl]phenyl}propan-2-ol] reads < 6.00; that for `CC(C)(O)c1ccc(-c2n[nH]c3ncc(-c4ccc5c(c4)CCN(C4CCCC4)CC5)cc23)cc1` [Example 18, 2-{4-[5-(3-Cyclopentyl-2,3,4,5-tetrahydro-1H-3-benzazepin-7-yl)-1H-pyrazolo[3,4-b]pyridin-3-yl]phenyl}propan-2-ol], 6.00 to 7.00.
For `CS(=O)(=O)c1ccc(-c2n[nH]c3nc(N)c(-c4ccc5c(c4)CCN(C4CCCC4)CC5)cc23)cc1` [Example 19, 5-(3-Cyclopentyl-2,3,4,5-tetrahydro-1H-3-benzazepin-7-yl)-3-(4-methanesulfonylphenyl)-1H-pyrazolo[3,4-b]pyridin-6-amine], the pIC50 at Axl [1] is < 6.00; against Axl [2], 6.00 to 7.00.
As for `CC(C)(O)c1ccc(-c2n[nH]c3ncc(-c4ccc5c(c4)CCN(C4CCCC4)C5)cc23)cc1Cl` [Example 28, 2-(2-Chloro-4-(5-(2-cyclopentyl-1,2,3,4-tetrahydroisoquinolin-6-yl)-1H-pyrazolo[3,4-b]pyridin-3-yl)phenyl)propan-2-ol], on Axl [1], the pIC50 was < 6.00.
Still for that read-out and setting: with `CC(C)(O)c1ccc(-c2n[nH]c3ncc(-c4ccc5c(c4)CN(C4CCCC4)CC5)cc23)cc1Cl` [Example 29, 2-(2-Chloro-4-(5-(2-cyclopentyl-1,2,3,4-tetrahydroisoquinolin-7-yl)-1H-pyrazolo[3,4-b]pyridin-3-yl)phenyl)propan-2-ol] the figure was < 6.00.
For the compound `CC(C)(C#N)c1ccc(-c2n[nH]c3ncc(-c4ccc5c(c4)CCN(C4CCCC4)CC5)cc23)cc1` [Example 33, 2-(4-(5-(3-Cyclopentyl-2,3,4,5-tetrahydro-1H-benzo[d]azepin-7-yl)-1H-pyrazolo[3,4-b]pyridin-3-yl)phenyl)-2-methylpropanenitrile], the pIC50 is < 6.00 at Axl [1] and 6.00 to 7.00 at Axl [2].
Take `CC(C)S(=O)(=O)c1ccc(-c2n[nH]c3ncc(-c4ccc5c(c4)CCC(C)(N4CCC[C@H]4C)CC5)cc23)cc1` (stereo partly drawn) [Example 43, 3-(4-(Isopropylsulfonyl)phenyl)-5-(7-methyl-7-((R)-2-methylpyrrolidin-1-yl)-6,7,8,9-tetrahydro-5H-benzo[7]annulen-2-yl)-1H-pyrazolo[3,4-b]pyridine]: the pIC50 at Axl [1] and against Axl [2] was > 7.00 throughout.
For the compound `CCS(=O)(=O)c1ccc(-c2n[nH]c3ncc(-c4ccc5c(c4)CCC(C)(N4CCC[C@H]4C)CC5)cc23)cc1` (stereo partly drawn) [Example 44, 3-(4-(Ethylsulfonyl)phenyl)-5-(7-methyl-7-((R)-2-methylpyrrolidin-1-yl)-6,7,8,9-tetrahydro-5H-benzo[7]annulen-2-yl)-1H-pyrazolo[3,4-b]pyridine], the pIC50 at Axl [1] and on Axl [2] was > 7.00 throughout.
Regarding `CC(C)(O)c1ccc(-c2n[nH]c3ncc(-c4ccc5c(c4)CC[C@@H](N4CCCC4)CC5)cc23)c(Cl)c1` [Example 51, 2-(3-Chloro-4-{5-[(7S)-7-(pyrrolidin-1-yl)-6,7,8,9-tetrahydro-5H-benzo[7]annulen-2-yl]-1H-pyrazolo[3,4-b]pyridin-3-yl}phenyl)propan-2-ol], the negative-log IC50 (pIC50) on Axl [1] and on Axl [2] was 6.00 to 7.00 each time.
Regarding `CNC(=O)c1ccc(-c2n[nH]c3ncc(-c4ccc5c(c4)CCC(C)(N4CCC[C@H]4C)CC5)cc23)cc1` (stereo partly drawn) [Example 71, N-Methyl-4-(5-{7-methyl-7-[(2R)-2-methylpyrrolidin-1-yl]-6,7,8,9-tetrahydro-5H-benzo[7]annulen-2-yl}-1H-pyrazolo[3,4-b]pyridin-3-yl)benzamide], the pIC50 at Axl [1] is > 7.00.
Turning to `Cc1cc(C(N)=O)ccc1-c1n[nH]c2ncc(-c3ccc4c(c3)CC[C@@H](N3CCCC3)CC4)cc12` [Example 86, (S)-3-Methyl-4-(5-(7-(pyrrolidin-1-yl)-6,7,8,9-tetrahydro-5H-benzo[7]annulen-2-yl)-1H-pyrazolo[3,4-b]pyridin-3-yl)benzamide], the negative logarithm of the IC50 (pIC50) was 6.00 to 7.00 at Axl [1] and > 7.00 against Axl [2].
Taken in the same sequence, the figures for `CC(C)(O)c1ccc(-c2c[nH]c3ncc(-c4ccc5c(c4)CCC(N4CCCC4)CC5)cc23)cc1Cl` (stereo not shown) [Example 106, 2-(2-Chloro-4-{5-[7-(pyrrolidin-1-yl)-6,7,8,9-tetrahydro-5H-benzo[7]annulen-2-yl]-1H-pyrrolo[2,3-b]pyridin-3-yl}phenyl)propan-2-ol] were 6.00 to 7.00 and > 7.00.
As for `C[C@@H]1CCCN1C1(C)CCc2ccc(-c3cnc4[nH]cc(C5CCN(S(C)(=O)=O)CC5)c4c3)cc2CC1` (stereo partly drawn) [Example 116, 1-Methanesulfonyl-4-(5-{7-methyl-7-[(2R)-2-methylpyrrolidin-1-yl]-6,7,8,9-tetrahydro-5H-benzo[7]annulen-2-yl}-1H-pyrrolo[2,3-b]pyridin-3-yl)piperidine], the pIC50 on Axl [1] was > 7.00.
